The values below come from PMC10179080, “In Vivo and In Vitro Characterization of Close Analogs of Compound KA-11, a New Antiseizure Drug Candidate” (International Journal of Molecular Sciences, 2023).

Data set [1] relates to neuromuscular strength in mice. As to the kind of experiment: Grip strength test. Type of data set: in vivo. As to conditions: 50 mg/kg i.p., 30 min before test. As for the experimental part: The experiments were conducted on adult male albino Swiss mice weighing 22–26 g. The animals were kept in colony cages under standardized laboratory conditions: natural light–dark cycle 12/12 h, temperature 20–24 °C, air humidity 45–65% and free access to tap water and food (chow pellets). After 7 days of adaptation to laboratory conditions, the animals were randomly assigned to experimental groups consisting of 8 mice. The experimental procedures described herein were approved by the Local Ethics Committee in Lublin, Poland (approval numbers: 71/2020 and 13/2021), and were conducted in accordance with EU Directive 2010/63/EU for animal experiments. All efforts were made to minimize animal suffering and to use only the number of animals necessary to produce reliable scientific data according to the 3Rs rule. The grip strength test was carried out according to the methodology described by Socała et al.. Neuromuscular strength was measured just before the ivPTZ seizure threshold test to limit the number of animals used. The ED50 or TD50 values for tested substances in the acute animal models of seizures were calculated using the computer log-probit analysis. Subsequently, the ED50 and TD50 values (±SEM) were statistically analyzed using one-way analysis of variance (ANOVA) followed by the post hoc Dunnett’s test for multiple comparisons. Differences among values were considered statistically significant if p < 0.05. GraphPad Prism version 8 for Windows (GraphPad Software, San Diego, CA, USA) was used as a statistical software program. The results obtained from the acute ivPTZ test and grip strength test were evaluated by a Student’s t test. Fisher’s exact probability test was used to analyze protection from tonic forelimb and hindlimb extension in the ivPTZ test. Figure 8 Effects of KA-228 and KA-232 on neuromuscular strength in mice. KA-228 and KA-232 were administered i.p., 30 min before the test. Control animals received vehicle. […] The statistical significance was evaluated using the Student’s t test: * p < 0.05 vs. the vehicle-treated group (GraphPad Prism 8).

Data set [2] deals with seizure susceptibility in mice. The experiment in a line: Timed ivPTZ seizure threshold test. It counts as in vivo. As to conditions: 50 mg/kg i.p., 30 min before ivPTZ. On the procedure: (§1) The experiments were conducted on adult male albino Swiss mice weighing 22–26 g. The animals were kept in colony cages under standardized laboratory conditions: natural light–dark cycle 12/12 h, temperature 20–24 °C, air humidity 45–65% and free access to tap water and food (chow pellets). After 7 days of adaptation to laboratory conditions, the animals were randomly assigned to experimental groups consisting of 8 mice. The experimental procedures described herein were approved by the Local Ethics Committee in Lublin, Poland (approval numbers: 71/2020 and 13/2021), and were conducted in accordance with EU Directive 2010/63/EU for animal experiments. All efforts were made to minimize animal suffering and to use only the number of animals necessary to produce reliable scientific data according to the 3Rs rule.
The timed ivPTZ seizure threshold test was carried out according to the method described by Socała et al.. KA-228 and KA-232 were suspended in a 1% solution of Tween 80 and administered i.p. 30 min before the test. In the experiment with KA-232, two separate control groups were used because the effects of KA-232 at a dose of 50 and 100 mg/kg were determined on different days.
(§2) The ED50 or TD50 values for tested substances in the acute animal models of seizures were calculated using the computer log-probit analysis. Subsequently, the ED50 and TD50 values (±SEM) were statistically analyzed using one-way analysis of variance (ANOVA) followed by the post hoc Dunnett’s test for multiple comparisons. Differences among values were considered statistically significant if p < 0.05. GraphPad Prism version 8 for Windows (GraphPad Software, San Diego, CA, USA) was used as a statistical software program. The results obtained from the acute ivPTZ test and grip strength test were evaluated by a Student’s t test. Fisher’s exact probability test was used to analyze protection from tonic forelimb and hindlimb extension in the ivPTZ test.
Figure 7 Effects of KA-11, KA-228 and KA-232 on the threshold for the first myoclonic twitch (A), generalized clonus (B) and forelimb tonus (C) in the ivPTZ test in mice. KA-228 and KA-232 were administered i.p., 30 min before seizure induction. Control animals received vehicle. Data are presented as means ± SD (mg/kg PTZ; n = 9–14 animals; the n value varies between groups because some animals were excluded from the study due to unsuccessful catheterization of the vein). The statistical significance for KA-228 and KA-232 was evaluated by a Student’s t test. Data for KA-11 were used from Socała et al. and re-analyzed using one-way ANOVA followed by Dunnett’s post hoc test. * p < 0.05, ** p < 0.01, *** p < 0.001, **** p < 0.0001 vs. the vehicle-treated group (GraphPad Prism 8).

Data set [3] deals with Calcium Cav1.2 channels (dihydropyridine site, antagonist radioligand). The experiment in a line: Radioligand binding, Cav1.2 dihydropyridine site. On the set-up: species or system rat. Particulars: 10 µM. On the procedure: (§3) Dysfunction of both sodium and calcium ion channels is known to be one of the crucial reasons behind the pathogenesis of seizures. Consequently, these ion channels are molecular targets for several clinically important ASDs such as lacosamide, lamotrigine, carbamazepine, oxcarbazepine and compounds currently under preclinical and clinical studies. Thus, for KA-228 and KA-232, we tested herein their binding profile toward the aforementioned ion channels at concentrations of 10 and 100 µM (Table 3). […] Apart from in vitro studies focused on explaining the mechanism of action, KA-232 was additionally tested for its interaction with the potassium channel (hERG) which is recognized as one of the most important ‘off-targets’ responsible for harmful arrhythmogenic activity. Thus, the interaction of potential drug candidates with hERG must be excluded at an early stage of development.
(§4) Binding studies were carried out commercially in Eurofins Laboratories (Poitiers, France or New Taipei City, Taiwan).

In data set [4] the test system is tonic–clonic seizures in mice. As to the kind of experiment: Maximal electroshock seizure (MES) test. Type of data set: in vivo. On the procedure: as §1
(§5) All substances (except PTZ and tetracaine hydrochloride dissolved in water for injections) were suspended in a 1% solution of Tween 80 (Sigma-Aldrich, Saint Louis, MO, USA) in water for injections (Baxter, Warszawa, Poland) or 0.9% NaCl. All drugs were injected intraperitoneally (i.p.) 30 min before all seizure models with 1 mL syringes as a single injection, in a volume of 10 mL/kg. The pretreatment time (30 min) before testing for KA-228 and KA-232 was chosen based on the time to peak of maximum anticonvulsant activity of KA-11 from our previous studies.
The tonic–clonic seizures in mice were evoked by an electric stimulus (an alternating current 25 mA, 50 Hz, maximum output voltage 500 V, 0.2 s) generated by a rodent shocker (Hugo Sachs Elektronik, Freiburg, Germany) and delivered via ear-clip electrodes. […] This experimental procedure has been described in detail in our previous studies.
as §2
On the technique in general: The maximal electroshock test induces tonic seizures with an electrical stimulus.

The next data set in a line: Chimney test. As to conditions: male, albino Swiss, mouse, in vivo, ip, mice. As for the experimental part: as §1
The chimney test of Boissier et al. was used to quantify the acute adverse-effect potential of KA-228 and KA-232 on motor performance in mice. […]
The ED50 or TD50 values for tested substances in the acute animal models of seizures were calculated using the computer log-probit analysis. Subsequently, the ED50 and TD50 values (±SEM) were statistically analyzed using one-way analysis of variance (ANOVA) followed by the post hoc Dunnett’s test for multiple comparisons. […] The results obtained from the acute ivPTZ test and grip strength test were evaluated by a Student’s t test. […]

In data set [5] the test system is PTZ-induced clonic seizures in mice. The experiment in a line: scPTZ-induced convulsions. As to conditions: i.p. It counts as in vivo. On the procedure: as §1, §5
The PTZ-induced clonic seizures in mice were determined after sc administration of PTZ at a dose of 100 mg/kg. The animals were administered with increasing doses of KA-228 and KA-232, and the anticonvulsant activity of each drug was evaluated as the ED50 value. This experimental procedure has been described in detail in our previous studies.
as §2

The test system of data set [6] is 6-Hz-induced psychomotor seizures in mice. The experiment in a line: 6 Hz (32 mA) seizure model. It counts as in vivo. On the procedure: as §1, §5
The 6-Hz-induced psychomotor seizures in mice were evoked by current (6 Hz, 0.2 ms rectangular pulse width, 32 mA, 3 s duration) generated by an S48 Square Pulse Stimulator and CCU1 Constant Current Unit (Grass Technologies, West Warwick, RI, USA). The animals were administered with increasing doses of KA-228 and KA-232, and the anticonvulsant activity of each drug was evaluated as the ED50. This experimental procedure has been described in detail in our previous studies.
as §2

The next data set has as its system Na^+ channel (site 2). The experiment in a line: Radioligand binding, Na+ channel (site 2). On the set-up: species or system rat. As for the experimental part:
as §3, §4

The subject of data set [7] is PTZ-induced clonic seizures in mice. As to conditions: i.p.; cited from earlier work.
Data set [8] concerns tonic–clonic seizures in mice. Particulars: i.p.; cited from earlier work.
Data set [9] relates to 6-Hz-induced psychomotor seizures in mice. As to conditions: i.p.; cited from earlier work.
Another data set deals with hepatoma HepG2. The experiment in a line: Hepatotoxicity, HepG2 cell viability. Type of data set: cell-based, human. As to conditions: 100× lower concentration than 100 µM. From the text:
The assays and protocols used for evaluating the KA-232 ADME-Tox parameters were similar to those described previously for compound KA-11 [6].
Figure 9 The effect of KA-232 and the reference drug ketoconazole (KE) on CYP3A4 activity (A). The effect of KA-232 and the reference drug quinidine (QD) on CYP2D6 activity (B). The effect of KA-232 and the reference cytostatic drug doxorubicin (DX) on the HepG2 cell line (C) and the SH-SY5Y cell line (D) viability. Statistical significance (* p < 0.05, **** p < 0.0001) was analyzed by Graph Pad Prism 8 software using one-way ANOVA and Bonferroni’s Multiple Comparison Post Test.

Where two headings read alike, the source gives them in different places.

A word on the ED50: it is the dose at which the effect has come halfway, by size or by number of responders. One may read the melting point as the temperature of the solid-liquid transition. Turning to `CC(C(=O)N1CCN(c2cccc(C(F)(F)F)c2)CC1)N1CCCC1=O` (centres unmarked) [KA-228, 1-(1-oxo-1-(4-(3-(trifluoromethyl)phenyl)piperazin-1-yl)propan-2-yl)pyrrolidin-2-one], the melting point is 87.1 to 88.4 °C. In [1], the “effect on neuromuscular strength (grip strength)” value is listed as “did not produce any significant effects”. In data set [2], the “effect on threshold for forelimb tonus” value was “significantly raised”, the “effect on threshold for generalized clonus” value is on record as “did not cause any significant changes” and the “effect on threshold for the first myoclonic twitch” value is “did not cause any significant changes”. The “% Inhibition of Control Specific Binding” value in [3] is reported as 8.7%. Further, the ED50 in data set [4] (Mus musculus, ip, 30 min before test, read-out: ED50 MES ± SD) came out at 92.5 ± 16 mg/kg. Further, the “TI (TD50/ED50), MES” value in data set [4] (i.p.) came out at 1.42. Moreover, the TD50 at 30 min in “Chimney test” came to 131 ± 36.2 mg/kg. In addition, in [5] (Mus musculus, scPTZ 100 mg/kg, 30 min before test, read-out: ED50 PTZ ± SD), the ED50 was 95.4 ± 39.8 mg/kg. The “TI (TD50/ED50), PTZ” value in data set [5] (scPTZ) turned out to be 1.38. The ED50 in data set [6] (Mus musculus, ip, 30 min before test, read-out: ED50 6 Hz ± SD) was 61.8 mg/kg. Besides, the “TI (TD50/ED50), 6 Hz” value in data set [6] (i.p.) was found to be 1.72. Further, the “ED50 6 Hz ± SD” value in data set [6] (i.p., 30 min before test) amounted to 76.4 ± 40.76 mg/kg. For the same compound, in the data set with Na^+ channel (site 2) (10 µM), the “% Inhibition of Control Specific Binding” value was −2.9%. Further, the “% Inhibition of Control Specific Binding” value with Na^+ channel (site 2) (100 µM) came to 15.5%.
On to `CCCC(CCC)C(=O)O` [VPA, valproic acid, reference compound], for which, in data set [7], the “ED50 PTZ ± SD” value is on record as 176.2 ± 81.8 mg/kg and the “TI (TD50/ED50), PTZ” value is listed as 2.44. In data set [8], the “ED50 MES ± SD” value is 355.2 ± 108.1 mg/kg and the “TI (TD50/ED50), MES” value is 1.21. Besides, in data set [9], the “ED50 6 Hz ± SD” value is given as 110.5 ± 42.8 mg/kg and the “TI (TD50/ED50), 6 Hz” value was 3.90.
With `COc1cccc2c1C(=O)c1c(O)c3c(c(O)c1C2=O)C[C@@](O)(C(=O)CO)C[C@@H]3O[C@H]1C[C@H](N)[C@H](O)[C@H](C)O1` [doxorubicin, reference compound], in the data set with hepatoma HepG2, the HepG2 cell viability is recorded as 21 % of control.
